Assay results: patent US3962282A, “Juvenile hormone mimics” (priority 1974, dated 1976)

Experiments:
Tenebrio molitor pupae = assay: topical application to Tenebrio molitor pupae, maturation inhibition; type: in vivo
Summary of the method: (§1)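 Compounds applied topically, 1 μL acetone solution at 10%, 1% or 0.5%, to ten specimens per insect per concentration, alongside acetone and untreated controls; scored after about 8–10 days. Juvenile/adult characteristics rated 0–3 (Tenebrio 0–4), ≥2 meaning unable to reproduce; unreported specimens died during metamorphosis.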

alfalfa weevil larvae = assay: topical application to alfalfa weevil larvae; type: in vivo; conditions: 10 percent solution in acetone, all controls reached normal adulthood
Excerpt: A number of compounds were applied topically to alfalfa weevil larvae as a 10 percent solution in acetone. Acetone and nontreated controls were also run. Ten larvae were used in each test. The number of normal adults emerging from the larvae was observed. In each case, all the acetone and nontreated controls reached normal adulthood. The number of normal adults from treated larvae are reported below.

wax moth = assay: topical application to wax moth, fifth larval stage, maturation inhibition; type: in vivo
Summary of the method: as §1

Mexican bean beetle = assay: topical application to Mexican bean beetle, fourth larval stage, maturation inhibition; type: in vivo; conditions: rating scale 0-3
Summary of the method: as §1

milkweed bug = assay: topical application to milkweed bug, fourth nymphal stage, maturation inhibition; type: in vivo; conditions: rating scale 0-3
Summary of the method: as §1

[1] = Wigglesworth, J. Ins. Physiol. 9, 105 (1963); cited from earlier work
[2] = test system: Housefly (Musca domestica); assay: housefly rearing diet test, percent adult emergence; type: in vivo
Protocol: Test compounds were mixed with the rearing diet of houseflys at various levels. The prepared diet was then placed in an 8 oz. drinking cup. Three cups were prepared for each treatment level and three control cups. Housefly eggs (Musca domestica) were placed in each cup and they were maintained at 28°C. for 1 week. Fifty pupae were then removed from each cup and placed in a petri dish. After the control pupae had emerged into adults, the percent emergence in each dish was recorded. The test compounds used were 7,8-epoxy-4-ethyl-8-methyl-1-(3,4-methylenedioxyphenyl)-3-decene, 4,8-dimetyl-1-(3,4-methylenedioxyphenyl)-2,6-nonadiene and 2,6-dichloro-2,6-dimethyl-9-(3,4-methylenedioxyphenyl)nonane.

[3] = test system: Aedes aegypti mosquito larvae; assay: mosquito larvae in aqueous solutions, adult emergence; type: in vivo; conditions: for number of adults, Jar 1 Dead / number of adults, Jar 1 Living / number of adults, Jar 2 Dead / number of adults, Jar 2 Living: 13 days
Protocol: Two compounds, 7,8-epoxy-4-ethyl-8-methyl-1-(3,4-methylenedioxyphenyl)-3-decene and 2,6-diemthyl-9-(3,4-methylenedioxyphenyl)-2,6-nonadiene, were tested against Aedes aegypti mosquito larvae in aqueous solutions at concentrations of 10, 5, 2.5. 1.25 and 0.625 ppm. each. Ninety milliliters of each solution were placed in a pint jar and 30 five-day-old mosquito larvae were added to each jar. Two tests were run at each concentration and control tests employing only solvent with no compound were also run. Food was added to each jar, the jars were covered with cloths, and maintained at 29°C. until adults emerged in the control jars. The number of adults in the test jars was determined.

aphid nymphs = assay: application to aphid nymphs in acetone; type: in vivo, Aphis gossypi; conditions: 3 days
Protocol: In another test, female aphids were placed on young squash plants and allowed to produce young for 24 hours. After 24 hours, all adult aphids were removed from the plants and the young were maintained on the plants for an additional 48-hour period. This gave an aphid nymph population having an age of 48 to 72 hours. To each nymph was applied […]. of a 10 percent, 1 percent, or 0.5 percent solution of 2.6- dimethyl-9-(3,4-methylenedioxyphenyl)-2,6-nonadiene or 7,8-epoxy-4-ethyl-8-methyl-1-(3,4-methylenedioxyphenyl)-3-decene in acetone and the aphid nymphs were transferred to new squash plants and observed for possible effects. Ten nymphs were treated with each concentration of each compound and 10 were treated with acetone alone while 10 were not treated to serve as controls. […] There was only one dead nymph treated with acetone alone and one dead nymph in the nontreated controls.

housefly larvae = assay: topical application to housefly larvae; type: in vivo, Musca domestica; conditions: scale 0-2
Protocol: The compounds were applied in acetone solution at concentrations of 10 percent, 1 percent and 0.5 percent. One microliter of the acetone solution was applied to each test specimen. Ten test specimens were employed for each insect at each concentration and compared to ten acetone controls and ten zero controls. Approximately eight to ten days were required before results could be ascertained.
A number of compounds were tested against housefly larvae by topical application in an acetone solution using the method described above for the primary test against Tenebrio, milkweed bug, wax moth, and Mexican bean bettel. The results with the first compound are reported on a scale of 0 to 3 with 0 indicating a normal adult, 1 indicating an adult with deformed wings, 2 indicating a partially emerged adult, and 3 indicating no evidence of emergence. The results for the other compounds are reported onn a scale of 0 to 2 with 0 indicating a normal adult, 1 indicating a partially emerged adult and 2 indicating no evidence of emergence.

[4] = 10% in acetone, 1 microliter topical, rating scale 0 (no effect) to 3 (maximum)

CC(C)=CCCC(C)=CCCc1ccc2c(c1)OCCO2 [9-(3,4-ethylenedioxyphenyl)-2,6-dimethyl-2,6-nonadiene]
number of specimens in rating 4 (Tenebrio molitor pupae; 0.5%, rating scale 0-4): 10 specimens | number of specimens in rating 3 (Tenebrio molitor pupae; 1%, rating scale 0-4): 2 specimens | number of specimens in rating 4 (Tenebrio molitor pupae; 1%, rating scale 0-4): 8 specimens | number of specimens in rating 4 (Tenebrio molitor pupae; 10%, rating scale 0-4): 10 specimens | Number of Adults (normal adults from ten treated larvae) (alfalfa weevil larvae): 7

COc1cccc(CCC=C(C)CCC=C(C)C)c1 [2,6-DIMETHYL-9-(3-METHOXYPHENYL)-2,6-NONADIENE]
number of specimens in rating 0 (wax moth; 0.5%, rating scale 0-3): 10 specimens | number of specimens in rating 0 (wax moth; 1%, rating scale 0-3): 9 specimens | number of specimens in rating 0 (wax moth; [4]): 9 specimens | number of specimens in rating 2 (wax moth; 10%, rating scale 0-3): 1 specimens | number of specimens in rating 3 (Tenebrio molitor pupae; 0.5%, rating scale 0-4): 1 specimens | number of specimens in rating 4 (Tenebrio molitor pupae; 0.5%, rating scale 0-4): 9 specimens | number of specimens in rating 4 (Tenebrio molitor pupae; 1%, rating scale 0-4): 10 specimens | number of specimens in rating 4 (Tenebrio molitor pupae; 10%, rating scale 0-4): 10 specimens | Number of Adults (normal adults from ten treated larvae) (alfalfa weevil larvae): 6 | number of specimens in rating 0 (Mexican bean beetle; 0.5%): 10 specimens | number of specimens in rating 0 (Mexican bean beetle; 1%): 10 specimens | number of specimens in rating 3 (Mexican bean beetle; 10%): 3 specimens | number of specimens in rating 0 (milkweed bug; 0.5%): 3 specimens | number of specimens in rating 1 (milkweed bug; 0.5%): 3 specimens | number of specimens in rating 2 (milkweed bug; 0.5%): 4 specimens | number of specimens in rating 1 (milkweed bug; 1%): 1 specimens | number of specimens in rating 2 (milkweed bug; 1%): 5 specimens | number of specimens in rating 3 (milkweed bug; 1%): 3 specimens | number of specimens in rating 3 (milkweed bug; 10%): 9 specimens

9-(2-furyl)-2,6-dimethyl-2,6-nonadiene [dendrolasin]
juvenile hormone activity [1]: some juvenile hormone activity

CCC(=CCCc1ccc2c(c1)OCO2)CCC1OC1(C)CC (stereo not drawn) [7,8-epoxy-4-ethyl-8-methyl-1-(3,4-methylenedioxyphenyl)-3-decene]
percent adult emergence, Cup 1 ([2]; 0.1 ppm in diet): 100% | percent adult emergence, Cup 2 ([2]; 0.1 ppm in diet): 100% | percent adult emergence, Cup 3 ([2]; 0.1 ppm in diet): 100% | percent adult emergence, Cup 1 ([2]; 1 ppm in diet): 100% | percent adult emergence, Cup 2 ([2]; 1 ppm in diet): 100% | percent adult emergence, Cup 3 ([2]; 1 ppm in diet): 100% | percent adult emergence, Cup 1 ([2]; 10 ppm in diet): 100% | percent adult emergence, Cup 2 ([2]; 10 ppm in diet): 100% | percent adult emergence, Cup 3 ([2]; 10 ppm in diet): 100% | control ([2]; 100 ppm): ≥ 80% | percent adult emergence, Cup 1 ([2]; 100 ppm in diet): 10% | percent adult emergence, Cup 2 ([2]; 100 ppm in diet): 20% | percent adult emergence, Cup 3 ([2]; 100 ppm in diet): 10% | number of specimens in rating 0 (wax moth; 0.5%, rating scale 0-3): 1 specimens | number of specimens in rating 3 (wax moth; 0.5%, rating scale 0-3): 9 specimens | number of specimens in rating 3 (wax moth; 1%, rating scale 0-3): 10 specimens | number of specimens in rating 4 (Tenebrio molitor pupae; 0.5%, rating scale 0-4): 10 specimens | number of specimens in rating 4 (Tenebrio molitor pupae; 1%, rating scale 0-4): 10 specimens | number of adults, Jar 1 Dead ([3]; 0.625 ppm): 0 | number of adults, Jar 1 Living ([3]; 0.625 ppm): 0 | number of adults, Jar 2 Dead ([3]; 0.625 ppm): 0 | number of adults, Jar 2 Living ([3]; 0.625 ppm): 0 | number of adults, Jar 1 Dead ([3]; 1.25 ppm): 0 | number of adults, Jar 1 Living ([3]; 1.25 ppm): 0 | number of adults, Jar 2 Dead ([3]; 1.25 ppm): 0 | number of adults, Jar 2 Living ([3]; 1.25 ppm): 0 | number of adults, Jar 1 Dead ([3]; 2.5 ppm): 0 | number of adults, Jar 1 Living ([3]; 2.5 ppm): 0 | number of adults, Jar 2 Dead ([3]; 2.5 ppm): 0 | number of adults, Jar 2 Living ([3]; 2.5 ppm): 0 | number of adults, Jar 1 Dead ([3]; 5 ppm): 0 | number of adults, Jar 1 Living ([3]; 5 ppm): 0 | number of adults, Jar 2 Dead ([3]; 5 ppm): 0 | number of adults, Jar 2 Living ([3]; 5 ppm): 0 | number of adults, Jar 1 Dead ([3]; 10 ppm): 0 | number of adults, Jar 1 Living ([3]; 10 ppm): 0 | number of adults, Jar 2 Dead ([3]; 10 ppm): 0 | number of adults, Jar 2 Living ([3]; 10 ppm): 0 | control ([3]; at concentrations as low as 0.625 ppm): 100% | live adults in the jars ([3]; nonadiene at 10, 5, and 2.5 ppm, decene at any concentration): never any live adults | dead nymphs (aphid nymphs; 0.5 percent): nine of the ten | dead nymphs (aphid nymphs; 1 percent): all of the nymphs | dead nymphs (aphid nymphs; 10 percent): all of the nymphs | number of specimens in rating 3 (Mexican bean beetle; 0.5%): 10 specimens | number of specimens in rating 3 (Mexican bean beetle; 1%): 10 specimens | number of specimens in rating 3 (milkweed bug; 0.5%): 9 specimens | number of specimens in rating 3 (milkweed bug; 1%): 8 specimens | number in rating 0 (normal adult) (housefly larvae; 0.5%): 6 | number in rating 2 (no evidence of emergence) (housefly larvae; 0.5%): 4 | number in rating 0 (normal adult) (housefly larvae; 1%): 5 | number in rating 1 (partially emerged adult) (housefly larvae; 1%): 1 | number in rating 2 (no evidence of emergence) (housefly larvae; 1%): 4 | number in rating 2 (no evidence of emergence) (housefly larvae; 10%): 10

COc1cc(CCC=C(C)CCC=C(C)C)cc(OC)c1 [9-(3,5-dimethoxyphenyl)-2,6-dimethyl-2,6-nonadiene]
Number of Adults (normal adults from ten treated larvae) (alfalfa weevil larvae): 8

COc1ccc(CCC=C(C)CCC=C(C)C)cc1OC [2,6-DIMETHYL-9-(3,4-DIMETHOXYPHENYL)-2,6-NONADIENE]
number of specimens in rating 0 (wax moth; 0.5%, rating scale 0-3): 10 specimens | number of specimens in rating 0 (wax moth; 1%, rating scale 0-3): 10 specimens | number of specimens in rating 0 (wax moth; [4]): 10 specimens | number of specimens in rating 0 (Tenebrio molitor pupae; 0.5%, rating scale 0-4): 10 specimens | number of specimens in rating 0 (Tenebrio molitor pupae; 1%, rating scale 0-4): 4 specimens | number of specimens in rating 1 (Tenebrio molitor pupae; 1%, rating scale 0-4): 5 specimens | number of specimens in rating 0 (Tenebrio molitor pupae; 10% in acetone, 1 microliter topical, rating scale 0 (no effect) to 4 (maximum)): 2 specimens | number of specimens in rating 1 (Tenebrio molitor pupae; 10%, rating scale 0-4): 5 specimens | number of specimens in rating 2 (Tenebrio molitor pupae; 10%, rating scale 0-4): 3 specimens | Number of Adults (normal adults from ten treated larvae) (alfalfa weevil larvae): 5 | number of specimens in rating 0 (Mexican bean beetle; 0.5%): 10 specimens | number of specimens in rating 0 (Mexican bean beetle; 1%): 10 specimens | number of specimens in rating 1 (Mexican bean beetle; 10%): 3 specimens | number of specimens in rating 0 (milkweed bug; 0.5%): 8 specimens | number of specimens in rating 0 (milkweed bug; 1%): 8 specimens | number of specimens in rating 2 (milkweed bug; 10%): 3 specimens | number of specimens in rating 3 (milkweed bug; 10%): 2 specimens
